Measured values as given in article PMC8950868, “Identifying Human PTP1B Enzyme Inhibitors from Marine Natural Products: Perspectives for Developing of Novel Insulin-Mimetic Drugs” (Pharmaceuticals, 2022).
“Also recorded” adds a separate entry of the source.

Tests used:
[1] = molecular target: T1, PTP1B (Homo sapiens, UniProt P18031); assay: Dilution (reversibility) assay with PTP1B; assay type: biochemical; conditions: 50 µM, 1 h at 37 °C, then diluted 500 fold
T1 construct: human recombinant PTP1B (1–302)
T1 sequence (P18031 1-302): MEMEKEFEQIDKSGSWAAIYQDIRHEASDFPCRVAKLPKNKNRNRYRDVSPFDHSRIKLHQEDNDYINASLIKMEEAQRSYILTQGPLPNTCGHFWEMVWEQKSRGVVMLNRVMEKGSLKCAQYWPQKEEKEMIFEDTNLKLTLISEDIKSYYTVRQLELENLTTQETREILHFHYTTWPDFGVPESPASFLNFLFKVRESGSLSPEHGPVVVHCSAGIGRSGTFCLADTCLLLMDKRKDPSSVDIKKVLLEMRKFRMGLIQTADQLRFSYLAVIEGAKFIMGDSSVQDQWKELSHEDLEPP
Procedure: A dilution test was carried out to evaluate if the compound behaves as reversible or irreversible inhibitor of PTP1B. Briefly, an aliquot of the enzyme was diluted with different concentration of inhibitor and the samples incubated at 37 °C for 1 h. After this time, an aliquot of these samples was diluted 500 times in the assay buffer containing 2.5 mM p-NPP, to evaluate whether the enzyme is able to recover its activity since the final concentration of inhibitor is now far away from its IC50 value. Control test was carried out diluting the enzyme with an equal volume of deionised water. All tests were performed in triplicate.
Figure 4 Dilution assay. To evaluate the mechanism of action of the compounds, a reversibility assay was carried out. The PTP1B was incubated in the presence of the saturating concentration of each compound (50 µM) for 1 h at 37 °C. Then, an aliquot of enzyme was diluted 500 folds in the assay buffer to evaluate the residual activity of the enzyme. Tests were carried out in triplicate. Data represent the mean value ± SD.

[2] = tested on: C2C12 cells; assay: Insulin signalling pathway analysis (western blot of pIR and pAkt); assay type: cell-based, murine; conditions: for Effect on insulin signalling pathway: differentiated C2C12 cells
Procedure: C2C12 cells were plated on P35 dishes, grown until 80% confluence and then incubated in the presence of differentiation medium (DMEM-high glucose (4500 mg/L) supplemented with 2% Horse serum (HS, Euroclone), 2 mM glutamine, 100 U/mL penicillin, and 100 μg/mL streptomycin) for 4 days. After this time, cell plates were washed with PBS and cells stimulated with 10 nM insulin, compound 3 or insulin-compound 3 combination for 30 min. After cell plates were washed with cold PBS solution and lysed using 1X Leammli sample buffer. Samples were store at 4 °C for 15 min and then protein solutions were collected and boiled for 5 min. Proteins were analysed by SDS-PAGE and then transferred on a PVDF membrane by western blot. Phosphorylation status of insulin receptor and the kinase Akt was evaluated using specific antibodies (pIR β subunit, Y1162/1163 (sc-25103-R) and β-actin, clone C-4 (sc-47778) were from Santa Cruz Biotechnology (Santa Cruz, CA, USA); IR β subunit, clone CT-3 (MABS65) was from Merck-Millipore (Burlington, MA, USA). Akt (9272S) and p-Akt (9271S) antibodies were from Cell Signalling Technology (Danvers, MA, USA). Secondary antibodies were from Santa Cruz Biotechnology (Santa Cruz, CA, USA). Detection was performed using Clarity western ECL substrates (Bio-Rad Laboratories, Inc.).
Figure 12 Effect of compound 3 on insulin signalling pathway. C2C12 cells were incubated with compound 3 (20 µM final concentration) for 30 min, in the presence or not of insulin (10 nM). After that, cells were lysed, and cellular extracts were analysed to evaluate the phosphorylation status of IR and Akt. (A), western blot image; (B,C), quantitation of western blot carried out using Kodak MI software. Data were normalized respect to control sample. All tests were carried out in triplicate. Ctr: control experiment; Ins: cells treated with 10 nM insulin; 3: cells treated with compound 3 (20 µM); 3 + Ins, cells treated with insulin and compound 3. Statistical analysis was carried out using one way ANOVA followed by Tukey’s HSD test for pairwise comparisons. * p < 0.05.

[3] = molecular target: T2, human recombinant AR (Homo sapiens, UniProt P15121); assay: AR enzymatic assay (NADPH oxidation, L-idose substrate); assay type: biochemical; conditions: for remaining activity at 71 µM: 71 µM (maximal concentration used), read-out: % residual activity of human AR
T2 construct: made in house
Procedure: The human recombinant AR, purified to electrophoretic homogeneity as described, was used as target enzyme. AR activity was determined at 37 °C as previously described by evaluating the decrease in absorbance at 340 nm linked to NADPH oxidation using a Biochrom Libra S60 spectrophotometer. The standard assay mixture contained 0.25 M sodium phosphate buffer pH 6.8, 0.18 mM NADPH, 0.42 M ammonium sulfate, 0.5 mM EDTA and 4.7 mM D,L-glyceraldehyde. One unit of enzyme activity is the amount that catalyses the conversion of 1 µmol of substrate/min in the above assay conditions. For AR inhibition studies, 0.8 mM L-idose was used as substrate in the conditions described above, in the presence of 10 mU of enzyme and of a final concentration of DMSO of 0.7% (v/v).

[4] = 20 µM compound + 10 nM insulin, versus insulin alone
[5] = 20 µM compound alone, 30 min, versus control cells

Row | Reversibility of PTP1B inhibition [1] | AR inhibition (in words) [3] | remaining activity at 71 µM [3] | Compound | Phosphorylation level of Akt [2, 4] | Phosphorylation level of insulin receptor (IR) [2, 4] | Phosphorylation level of Akt [2, 5] | Phosphorylation level of insulin receptor (IR) [2, 5] | Effect on insulin signalling pathway [2]
1 | reversible inhibitors | ineffective | 82 ± 3% | CCCCCCCCCCCCCCC(OP(=O)(O)O)C(O)CCCO (centres unmarked) [Compound 3] | not statistically different | not statistically different | increased with respect to control cells | increased with respect to control cells | acts as an insulin-mimetic agent; also recorded: evident insulin-mimetic activity
2 | reversible inhibitors |  | 87 ± 2% | CCCCC[C@@H](OP(=O)(O)O)[C@@H](O)CC[C@H](CCCC)OC(C)=O (relative stereo) [Compound 8a] |  |  |  |  | did not improve the insulin signalling pathway; also recorded: completely inactive
